For 18 substances, MIC results are on record in patent US6503881B2 (priority 1996, dated 2003).

Read-outs that look alike come from different tables or passages of the source. Bounds are passed on as bounds.

The term MIC denotes the lowest concentration found to suppress growth.

This assay concerns bacteria.

Consider I L K K W P W W P W R R K [MBI 11CNX1], for which the MIC reads like this: (A. calcoaceticus AC001) over 64 µg/mL; (E. cloacae ECL007) over 64 µg/mL; (E. coli ECO005) 64 µg/mL; (E. faecalis EFS004) 16 µg/mL; (K. pneumoniae KP001) over 64 µg/mL; (P. aeruginosa PA024) over 64 µg/mL. In addition, the MIC is, setting by setting: (S. aureus SA006) 2 µg/mL; (S. maltophilia SMA002) over 64 µg/mL; (S. marcescens SMS003) over 64 µg/mL.

Turning to I L K K W P W W P W R R K [MBI 11M4], the MIC came out at 32 µg/mL (E. faecalis EFS001), 32 µg/mL (E. faecium EFM001) and 8 µg/mL (S. aureus SA008).

I L K K W P W W P W R R K [MBI 11M8] showed a minimum inhibitory concentration (MIC) (E. faecalis EFS002) of 32 µg/mL, a minimum inhibitory concentration (MIC) (E. faecium EFM002) of 32 µg/mL and an MIC (S. aureus SA008) of 32 µg/mL.

As to “ILKKWPWWPWRRMILKKAGS [MBI 11D5CN]”, the MIC by setting is: (A. calcoaceticus AC001) over 64 µg/mL; (E. cloacae ECL007) over 64 µg/mL; (E. coli ECO003) 64 µg/mL; (E. faecalis EFS002) 16 µg/mL; (E. faecium EFM003) 1 µg/mL; (K. pneumoniae KP001) over 64 µg/mL. In addition, the MIC by setting is: (P. aeruginosa PA003) over 64 µg/mL; (S. aureus SA005) 8 µg/mL; (S. maltophilia SMA001) 64 µg/mL; (S. marcescens SMS004) over 64 µg/mL.

In the case of I L K K W P W W P W R R M [MBI 11D12H], the MIC was over 64 µg/mL (A. calcoaceticus AC001); over 64 µg/mL (E. cloacae ECL007); 64 µg/mL (E. coli ECO003); 16 µg/mL (E. faecalis EFS004); over 64 µg/mL (K. pneumoniae KP002); over 64 µg/mL (P. aeruginosa PA004). The MIC runs as follows: (S. aureus SA014) 16 µg/mL; (S. maltophilia SMA002) over 64 µg/mL; (S. marcescens SMS004) over 64 µg/mL.

With I L K K W P W W P W R R [MBI 11G7ACN], the MIC runs as follows: (A. calcoaceticus AC002) 4 µg/mL; (E. cloacae ECL007) over 32 µg/mL; (E. coli ECO002) 16 µg/mL; (E. faecalis EFS008) 32 µg/mL; (E. faecium EFM001) 8 µg/mL; (K. pneumoniae KP002) over 32 µg/mL. For the same substance, the MIC reads like this: (P. aeruginosa PA006) over 32 µg/mL; (S. aureus SA010) 1 µg/mL; (S. epidermidis SE002) 4 µg/mL; (S. maltophilia SMA001) 32 µg/mL; (S. marcescens SMS004) over 32 µg/mL.

I L K K W P W W P W R R k [MBI 11E2CN]: the MIC was 4 µg/mL (A. calcoaceticus AC002); over 128 µg/mL (E. cloacae ECL007); 8 µg/mL (E. coli ECO002); 32 µg/mL (E. faecalis EFS002); 16 µg/mL (E. faecium EFM001); 64 µg/mL (K. pneumoniae KP002). For the same substance, the MIC by setting is: (P. aeruginosa PA001) over 128 µg/mL; (S. aureus SA016) 2 µg/mL; (S. epidermidis SE010) 4 µg/mL; (S. maltophilia SMA001) 64 µg/mL; (S. marcescens SMS004) over 128 µg/mL.

On to I L K K W P W W W R K [MBI 11D15CN], for which the MIC is, setting by setting: (E. faecalis EFS002) 32 µg/mL; (E. faecium EFM003) 4 µg/mL; (S. aureus SA009) 8 µg/mL.

As for I L K K W P W W W R R K [MBI 11G5CN], the MIC reads like this: (A. calcoaceticus AC002) 4 µg/mL; (E. cloacae ECL007) over 128 µg/mL; (E. coli ECO003) 16 µg/mL; (E. faecalis EFS002) 16 µg/mL; (E. faecium EFM002) 8 µg/mL; (K. pneumoniae KP001) over 128 µg/mL. Moreover, the MIC by setting is: (P. aeruginosa PA003) over 128 µg/mL; (S. aureus SA012) 4 µg/mL; (S. epidermidis SE002) 2 µg/mL; (S. maltophilia SMA002) 64 µg/mL; (S. marcescens SMS004) over 128 µg/mL.

Turning to I L K K W P W [MBI 11D10M8], the MIC runs as follows: (E. faecalis EFS002) 32 µg/mL; (E. faecium EFM003) 32 µg/mL; (S. aureus SA008) 32 µg/mL.

Turning to I L K K W V W W V W R R K [MBI 11F1CN], the MIC by setting is: (E. cloacae ECL007) over 128 µg/mL; (E. coli ECO003) 8 µg/mL; (E. faecalis EFS004) 16 µg/mL; (E. faecium EFM003) 2 µg/mL; (K. pneumoniae KP002) 32 µg/mL; (P. aeruginosa PA004) 64 µg/mL. Further, the MIC was 2 µg/mL (S. aureus SA009), over 128 µg/mL (S. marcescens SBSM1) and over 128 µg/mL (S. marcescens SMS003).

Turning to I L K K W W W P W R K [MBI 11D14CN], the MIC was found to be 32 µg/mL (E. faecalis EFS002), 1 µg/mL (E. faecium EFM003) and 4 µg/mL (S. aureus SA009).

As for I L K K W W W P W R R K [MBI 11G4CN], the MIC reads like this: (A. calcoaceticus AC002) 4 µg/mL; (E. cloacae ECL007) over 128 µg/mL; (E. coli ECO005) 32 µg/mL; (E. faecalis EFS002) 32 µg/mL; (E. faecium EFM003) 1 µg/mL; (K. pneumoniae KP001) over 128 µg/mL. Further, the MIC runs as follows: (P. aeruginosa PA004) over 128 µg/mL; (S. aureus SA004) 1 µg/mL; (S. epidermidis SE010) 2 µg/mL; (S. maltophilia SMA002) 64 µg/mL; (S. marcescens SMS003) over 128 µg/mL.

With I L K K Y P W Y P W R R K [MBI 11A5CN], the MIC runs as follows: (A. calcoaceticus AC001) over 128 µg/mL; (E. cloacae ECL007) over 128 µg/mL; (E. coli ECO003) 128 µg/mL; (E. faecalis EFS002) 32 µg/mL; (E. faecium EFM003) 4 µg/mL; (K. pneumoniae KP001) over 128 µg/mL. The MIC is over 128 µg/mL (P. aeruginosa PA003), 6 µg/mL (S. aureus SA002), over 128 µg/mL (S. maltophilia SMA002) and over 128 µg/mL (S. marcescens SMS003).

For I L K W P W W P W R K [MBI 11B5CN], the MIC is, setting by setting: (A. calcoaceticus AC002, agarose dilution) 4 µg/mL; (E. cloacae ECL007, agarose dilution) over 128 µg/mL; (E. coli ECO005, agarose dilution) 16 µg/mL; (E. faecalis EFS001, agarose dilution) 2 µg/mL; (E. faecalis EFS002) 16 µg/mL; (E. faecalis EFS008, agarose dilution) 8 µg/mL. In addition, the MIC (E. faecium EFM002) was found to be 1 µg/mL; the MIC (K. pneumoniae KP001, agarose dilution) was 16 µg/mL; the MIC (P. aeruginosa PA004, agarose dilution) is over 128 µg/mL; the MIC (S. aureus SA005) turned out to be 2 µg/mL; the MIC (S. aureus SA014, agarose dilution) was 2 µg/mL; the MIC (S. aureus SA093, agarose dilution) is 1 µg/mL. Moreover, the MIC reads like this: (S. epidermidis SE010, agarose dilution) 1 µg/mL; (S. maltophilia SMA002, agarose dilution) 64 µg/mL; (S. marcescens SMS003, agarose dilution) over 128 µg/mL.

I L K W P W W P W R R K [MBI 11B3CN]: the MIC (A. calcoaceticus AC001) is 64 µg/mL; the MIC (E. cloacae ECL007) was over 128 µg/mL; the MIC (E. coli ECO002) was 16 µg/mL; the MIC (E. faecalis EFS001) was found to be 16 µg/mL; the MIC (E. faecium EFM001) is 8 µg/mL; the MIC (K. pneumoniae KP002) amounted to 64 µg/mL. Also, the MIC (P. aeruginosa PA003) was over 128 µg/mL, the MIC (S. aureus SA010) was found to be 4 µg/mL, the MIC (S. maltophilia SMA002) came to 32 µg/mL and the MIC (S. marcescens SMS004) is over 128 µg/mL.

Substance I L P W K W P W W P W R R [MBI 10A] showed an MIC (E. faecalis EFS004) of 16 µg/mL, an MIC (E. faecium EFM003) of 8 µg/mL and an MIC (S. aureus SA010) of 8 µg/mL.

I L R R W P W W P W R K [MBI 11B2CN]: the minimum inhibitory concentration (MIC) (A. calcoaceticus AC001) is 64 µg/mL; the MIC (E. cloacae ECL007) was over 128 µg/mL; the MIC (E. coli ECO003) worked out at 16 µg/mL; the MIC (E. faecalis EFS004) is 8 µg/mL; the MIC (E. faecium EFM001) is 8 µg/mL; the MIC (K. pneumoniae KP002) was 64 µg/mL. Also, the MIC was over 128 µg/mL (P. aeruginosa PA003), 2 µg/mL (S. aureus SA005), 64 µg/mL (S. maltophilia SMA002) and over 128 µg/mL (S. marcescens SMS004).
